Patent publication US20040044067A1, “Toralactone and its derivation and the use of decreasing blood-fat and losing weight” (priority 2000, published 2004)

Tested on: hyperlipemia guinea pigs
Assay: Effect on serum cholesterol and triglyceride in hyperlipemia guinea pigs (high-cholesterol feed, 30 days)
Type: in vivo, guinea pig
Conditions: for Serum TC (total cholesterol) / Serum TG (triglyceride): guinea pigs on high-cholesterol feed (basic feed+0.5% cholesterol) plus 10 mg/(kg·d) compound for 30 days, serum taken 24 h after last feeding, n=10
Method: The test was performed as described in Fuhua, Wang, Chinese Journal of Surgery, 1991; 8 (1): 17. 60 healthy guinea pigs of 200-500 g were randomly divided into 6 groups based on body weight and sex. Each group contained 10 animals, including both male and female. The guinea pigs of Group 1 were fed with high-cholesterol feed (basic feed+0.5% cholesterol) at an amount of 20 g per 100 g body weight per day. Groups 2, 3, 4, 5 were test groups, the guinea pigs of which were fed with high-cholesterol feed plus 10 mg/(kg·d) of Compound (1), (2), (3) or (4) for 30 days. The guinea pigs of Group 6 were fed with basic feed only. The feeding for each group continued for 30 days, and 24 hours after the last feeding, the guinea pigs were anaesthetized i.p. with 1 g/kg Urethane. Blood was taken from heart, and serum was separated. The level of serum total cholesterol (TC) and triglyceride (TG) were determined.
In the above procedure, cholesterol was determinated by enzymatic analysis, using enzymatic agent assay kit from BGH Company (Taiwan). All the operations were carried out according to the manufacturer's instruction, and the determination was accomplished in ENCOREII automatic biochemistry analyser.

Substance | Serum TC (total cholesterol) | Serum TG (triglyceride) | Effect on the level of serum TC and TG (in words) (10 mg/(kg·d)×30d, hyperlipemia guinea pigs)
neotoralactone [Compound (1)] | 4.21 ± 1.9 mmol/L | 1.21 ± 0.3 mmol/L | –
neotoralactone-6-O-β-D-galactoside [Compound (4)] | 3.71 ± 1.1 mmol/L | 1.22 ± 0.2 mmol/L | –
neotoralactone-6-O-β-D-glucoside [Compound (2)] | – | – | most prominent
neotoralactone-8-O-β-D-glucoside [Compound (3)] | 3.81 ± 0.9 mmol/L | 1.18 ± 0.2 mmol/L | –
